{
  "source": "patent US20230271954A1",
  "about": "(Gossamer Bio Services, Inc., priority 2020, published 2023)",
  "key": {"DGKα": {"molecular_target": "DGKα (Homo sapiens, UniProt P23743)", "sequence (P23743 whole entry)": "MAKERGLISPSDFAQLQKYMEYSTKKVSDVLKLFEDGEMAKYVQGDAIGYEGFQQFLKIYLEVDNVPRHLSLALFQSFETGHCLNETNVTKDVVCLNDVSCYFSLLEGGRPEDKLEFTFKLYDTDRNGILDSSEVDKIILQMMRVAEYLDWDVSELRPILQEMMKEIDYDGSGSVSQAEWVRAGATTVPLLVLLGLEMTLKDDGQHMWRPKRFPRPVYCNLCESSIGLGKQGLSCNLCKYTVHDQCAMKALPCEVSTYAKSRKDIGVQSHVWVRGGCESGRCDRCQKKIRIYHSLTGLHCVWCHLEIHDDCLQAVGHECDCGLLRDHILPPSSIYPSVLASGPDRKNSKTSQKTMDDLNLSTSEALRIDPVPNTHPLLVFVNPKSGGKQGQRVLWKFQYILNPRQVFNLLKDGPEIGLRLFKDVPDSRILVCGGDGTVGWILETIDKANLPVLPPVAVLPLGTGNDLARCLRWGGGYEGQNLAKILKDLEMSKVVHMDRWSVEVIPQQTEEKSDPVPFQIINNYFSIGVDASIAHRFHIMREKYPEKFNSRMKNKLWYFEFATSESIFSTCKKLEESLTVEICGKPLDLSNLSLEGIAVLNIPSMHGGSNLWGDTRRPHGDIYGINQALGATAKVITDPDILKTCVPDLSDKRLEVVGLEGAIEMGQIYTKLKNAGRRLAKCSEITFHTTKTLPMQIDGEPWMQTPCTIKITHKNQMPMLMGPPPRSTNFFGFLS", "test": "DGKα biochemical assay (ADP-Glo)", "conditions": "read-out: DGK α IC50", "description": "(§1) Compounds of the present invention were prepared into 10 mM DMSO solution and 10 nL of stock was transferred into 384 plates (Optiplate 384 plate) using Echo550. DMSO was used as high control, and ATP substrate buffer was used as a low control. A 1× enzyme assay buffer was prepared (Hepes, pH 7.0 25 mM, BSA 0.05%, Triton-X100 0.002%, CaCl2) 1 μM, MgCl2 10 mM, DTT 2 mM). […] OAG (1-oleoyl-2-acetyl-sn-glycerol, 25 mg/ml, Avanti 8001000) and PS (10 mg/ml, Avanti 840032P) were mixed at the ratio of 1:2. A 1× substrate solution was prepared with 1× assay buffer by 100-fold dilution. The substrate solution was sonicated on ice for 1 min. The pure ATP was added to the substrate solution (DGKα:400 μM). 5 μL of the enzyme solution were added to the 384 well plate, and the plate was spun for 1 min at 1000 rpm and incubated for 30 mins at RT. 5 μL of 1× substrate solution were added to the 384 well plate, the plate was spun and then incubated for 45 mins at RT. 10 μL ADP-Glo […] was added to stop the assay. After 60 mins at RT, 20 μL ADP-Glo Detection buffer was added as the final step. Plate was read after 45 min incubation at RT.\n(§2) Data analysis was performed by calculating the […] using following the formula:\n(§3) [formula] • High control (Hc): DMSO/DGKα(DGKζ)/Substrate/ATP/ADP-Glo • Low Control (Lc): ATP/ADP-Glo"}, "DGKζ": {"molecular_target": "T1, DGKζ (Homo sapiens, UniProt Q13574)", "T1 construct": "purchased Carna 12-110", "T1 sequence (Q13574 1-929 isoform Q13574-4)": "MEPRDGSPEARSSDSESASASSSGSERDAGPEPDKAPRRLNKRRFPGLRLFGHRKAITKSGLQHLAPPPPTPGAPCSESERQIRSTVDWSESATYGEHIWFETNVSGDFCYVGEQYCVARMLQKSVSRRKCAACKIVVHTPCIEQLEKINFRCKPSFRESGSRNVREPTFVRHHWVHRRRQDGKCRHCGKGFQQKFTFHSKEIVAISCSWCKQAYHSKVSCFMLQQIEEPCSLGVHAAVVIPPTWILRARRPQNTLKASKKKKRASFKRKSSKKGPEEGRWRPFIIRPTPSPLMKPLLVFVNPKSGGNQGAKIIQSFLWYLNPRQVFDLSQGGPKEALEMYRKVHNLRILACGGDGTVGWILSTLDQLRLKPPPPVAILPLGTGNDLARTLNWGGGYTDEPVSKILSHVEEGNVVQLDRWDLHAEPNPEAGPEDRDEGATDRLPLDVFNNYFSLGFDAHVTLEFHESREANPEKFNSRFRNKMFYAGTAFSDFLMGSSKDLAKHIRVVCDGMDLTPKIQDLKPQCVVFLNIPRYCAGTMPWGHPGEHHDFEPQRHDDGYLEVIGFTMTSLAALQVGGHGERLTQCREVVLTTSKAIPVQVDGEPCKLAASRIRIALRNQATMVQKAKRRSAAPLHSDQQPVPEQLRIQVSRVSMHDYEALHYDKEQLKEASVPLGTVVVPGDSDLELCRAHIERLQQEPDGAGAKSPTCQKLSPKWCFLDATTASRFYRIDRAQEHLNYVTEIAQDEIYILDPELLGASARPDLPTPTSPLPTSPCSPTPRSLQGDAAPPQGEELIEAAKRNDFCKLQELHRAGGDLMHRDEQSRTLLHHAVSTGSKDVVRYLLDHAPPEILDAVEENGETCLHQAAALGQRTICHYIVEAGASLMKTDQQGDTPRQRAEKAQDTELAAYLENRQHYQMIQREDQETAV", "test": "DGKζ biochemical assay (ADP-Glo)", "conditions": "read-out: DGK ζ IC50", "description": "as §1, §2, §3"}},
  "data": [
    {"smiles": "Cn1c(=O)c(C#N)c(N(C)[C@H]2CC[C@@H](N(CC3CCC3)c3ccc(F)cc3C(F)F)CC2)c2nc(C#N)ccc21", "note": "[Example 180, cis-8-((-4-((cyclobutylmethyl)(2-(difluoromethyl)-4-fluorophenyl)amino)cyclohexyl)(methyl)amino)-5-methyl-6-oxo-5,6-dihydro-1,5-naphthyridine-2,7-dicarbonitrile]", "values": [
      {"measurement": "IC50", "setting": "DGKα", "result": "100 to 1000", "unit": "nM"},
      {"measurement": "IC50", "setting": "DGKζ", "result": "100 to 1000", "unit": "nM"}
    ]},
    {"smiles": "Cc1[nH]c2ccccc2c1C(=O)N[C@H]1CC[C@@H](N(CC2COC2)c2ccccc2)CC1", "note": "[Example 4D, cis-2-Methyl-N-(4-((oxetan-3-ylmethyl)(phenyl)amino)cyclohexyl)-1H-indole-3-carboxamide]", "values": [
      {"measurement": "IC50", "setting": "DGKα", "result": "≥ 1000", "unit": "nM"},
      {"measurement": "IC50", "setting": "DGKζ", "result": "≥ 1000", "unit": "nM"}
    ]},
    {"smiles": "Cc1cc(N(CC2CCC2)[C@H]2CC[C@@H](N(C)c3c(C#N)c(=O)n(C)c4ccc(C#N)nc34)CC2)ccc1F", "note": "[Example 91]", "values": [
      {"measurement": "IC50", "setting": "DGKα", "result": "< 10", "unit": "nM"},
      {"measurement": "IC50", "setting": "DGKζ", "result": "10 to 100", "unit": "nM"}
    ]},
    {"smiles": "COc1cccc(N(CC2CC2)[C@H]2CC[C@@H](N(C)c3c(C#N)c(=O)n(C)c4ccc(Cl)nc34)CC2)c1", "note": "[Example 11, cis-6-chloro-4-((4-((cyclopropylmethyl)(3-methoxyphenyl)amino)cyclohexyl)(methyl)amino)-1-methyl-2-oxo-1,2-dihydro-1,5-naphthyridine-3-carbonitrile]", "values": [
      {"measurement": "IC50", "setting": "DGKα", "result": "10 to 100", "unit": "nM"},
      {"measurement": "IC50", "setting": "DGKζ", "result": "100 to 1000", "unit": "nM"}
    ]},
    {"smiles": "Cc1c(F)cccc1N(CC1CC1)[C@H]1CC[C@H](N(C)c2c(C#N)c(=O)n(C)c3ccc(Cl)nc23)CC1", "note": "[Example 105, trans-6-chloro-4-((4-((cyclopropylmethyl)(3-fluoro-2-methylphenyl)amino)cyclohexyl)(methyl)amino)-1-methyl-2-oxo-1,2-dihydro-1,5-naphthyridine-3-carbonitrile]", "values": [
      {"measurement": "IC50", "setting": "DGKα", "result": "≥ 1000", "unit": "nM"},
      {"measurement": "IC50", "setting": "DGKζ", "result": "100 to 1000", "unit": "nM"}
    ]},
    {"smiles": "Cc1[nH]c2ccccc2c1C(=O)N[C@H]1CC[C@H](N(CC2CC2)c2ccccc2)CC1", "note": "[Example 4B]", "values": [
      {"measurement": "IC50", "setting": "DGKα", "result": "≥ 1000", "unit": "nM"},
      {"measurement": "IC50", "setting": "DGKζ", "result": "≥ 1000", "unit": "nM"}
    ]},
    {"smiles": "Cn1c(=O)c(C#N)c(N(C)[C@H]2CC[C@@H](N(CC3CCC3)c3cc4c(cc3F)OCO4)CC2)c2nc(C#N)ccc21", "note": "[Example 160, cis-8-((-4-((cyclobutylmethyl)(6-fluorobenzo[d][1,3]dioxol-5-yl)amino)cyclohexyl)(methyl)amino)-5-methyl-6-oxo-5,6-dihydro-1,5-naphthyridine-2,7-dicarbonitrile]", "values": [
      {"measurement": "IC50", "setting": "DGKα", "result": "< 10", "unit": "nM"},
      {"measurement": "IC50", "setting": "DGKζ", "result": "10 to 100", "unit": "nM"}
    ]},
    {"smiles": "Cc1cc(F)ccc1N(CC1CC1)[C@H]1CC[C@H](N(C)c2cc(=O)n(C)c3ccc(C#N)nc23)CC1", "note": "[Example 72, trans-8-((4-((cyclopropylmethyl)(4-fluoro-2-methylphenyl)amino)cyclohexyl)(methyl)amino)-5-methyl-6-oxo-5,6-dihydro-1,5-naphthyridine-2-carbonitrile]", "values": [
      {"measurement": "IC50", "setting": "DGKα", "result": "≥ 1000", "unit": "nM"},
      {"measurement": "IC50", "setting": "DGKζ", "result": "100 to 1000", "unit": "nM"}
    ]},
    {"smiles": "Cn1c(=O)cc(N(C)[C@H]2CC[C@@H](N(c3ccc(F)cc3)C3CC3)CC2)c2nc(C#N)ccc21", "note": "[Example 49, cis-8-((4-(cyclopropyl(4-fluorophenyl)amino)cyclohexyl)(methyl)amino)-5-methyl-6-oxo-5,6-dihydro-1,5-naphthyridine-2-carbonitrile]", "values": [
      {"measurement": "IC50", "setting": "DGKα", "result": "< 10", "unit": "nM"},
      {"measurement": "IC50", "setting": "DGKζ", "result": "100 to 1000", "unit": "nM"}
    ]},
    {"smiles": "CN1C(=O)CN([C@H]2CC[C@H](N(c3ccccc3O)C3CC3)CC2)c2nc(C#N)ccc21", "note": "[Example 2B, 4-(trans-4-(Cyclopropyl(2-hydroxyphenyl)amino)cyclohexyl)-1-methyl-2-oxo-1,2,3,4-tetrahydropyrido[3,2-b]pyrazine-6-carbonitrile]", "values": [
      {"measurement": "IC50", "setting": "DGKα", "result": "100 to 1000", "unit": "nM"},
      {"measurement": "IC50", "setting": "DGKζ", "result": "≥ 1000", "unit": "nM"}
    ]},
    {"smiles": "Cc1nc(F)ccc1N(CC1CCC1)[C@H]1CC[C@H](N(C)c2c(C#N)c(=O)n(C)c3ccc(Cl)nc23)CC1", "note": "[Example 139, trans-6-chloro-4-((-4-((cyclobutylmethyl)(6-fluoro-2-methylpyridin-3-yl)amino)cyclohexyl)(methyl)amino)-1-methyl-2-oxo-1,2-dihydro-1,5-naphthyridine-3-carbonitrile]", "values": [
      {"measurement": "IC50", "setting": "DGKα", "result": "≥ 1000", "unit": "nM"},
      {"measurement": "IC50", "setting": "DGKζ", "result": "≥ 1000", "unit": "nM"}
    ]},
    {"smiles": "Cc1ccc(N(CC2CCC2)[C@H]2CC[C@@H](N(C)c3c(C#N)c(=O)n(C)c4ccc(C#N)nc34)CC2)cc1OC(F)F", "note": "[Example 148, cis-8-((-4-((cyclobutylmethyl)(3-(difluoromethoxy)-4-methylphenyl)amino)cyclohexyl)(methyl)amino)-5-methyl-6-oxo-5,6-dihydro-1,5-naphthyridine-2,7-dicarbonitrile]", "values": [
      {"measurement": "IC50", "setting": "DGKα", "result": "10 to 100", "unit": "nM"},
      {"measurement": "IC50", "setting": "DGKζ", "result": "10 to 100", "unit": "nM"}
    ]},
    {"smiles": "COc1cccc(N(CC2CC2)[C@H]2CC[C@H](N(C)c3cc(=O)n(C)c4ccc(C#N)nc34)CC2)c1", "note": "[Example 14, trans-8-((4-((cyclopropylmethyl)(3-methoxyphenyl)amino)cyclohexyl)(methyl)amino)-5-methyl-6-oxo-5,6-dihydro-1,5-naphthyridine-2-carbonitrile]", "values": [
      {"measurement": "IC50", "setting": "DGKα", "result": "≥ 1000", "unit": "nM"},
      {"measurement": "IC50", "setting": "DGKζ", "result": "≥ 1000", "unit": "nM"}
    ]},
    {"smiles": "Cc1[nH]c2ccccc2c1C(=O)N[C@H]1CC[C@H](N(CC2(C)COC2)c2ccccc2)CC1", "note": "[Example 4E, trans-2-Methyl-N-(4-(((3-methyloxetan-3-yl)methyl)(phenyl)amino)cyclohexyl)-1H-indole-3-carboxamide]", "values": [
      {"measurement": "IC50", "setting": "DGKα", "result": "≥ 1000", "unit": "nM"},
      {"measurement": "IC50", "setting": "DGKζ", "result": "≥ 1000", "unit": "nM"}
    ]},
    {"smiles": "Cn1c(=O)c(C#N)c(N(C)[C@H]2CC[C@H](N(CC3CCC3)c3ccc4c(c3)OCCO4)CC2)c2nc(C#N)ccc21", "note": "[Example 171, trans-8-((4-((cyclobutylmethyl)(2,3-dihydrobenzo[b] [1,4]dioxin-6-yl)amino)cyclohexyl)(methyl)amino)-5-methyl-6-oxo-5,6-dihydro-1,5-naphthyridine-2,7-dicarbonitrile]", "values": [
      {"measurement": "IC50", "setting": "DGKα", "result": "100 to 1000", "unit": "nM"},
      {"measurement": "IC50", "setting": "DGKζ", "result": "100 to 1000", "unit": "nM"}
    ]},
    {"smiles": "Cc1ccccc1N(CC1CC1)[C@H]1CC[C@H](N(C)c2cc(=O)n(C)c3ccc(C#N)nc23)CC1", "note": "[Example 70, trans-8-((4-((cyclopropylmethyl)(o-tolyl)amino)cyclohexyl)(methyl)amino)-5-methyl-6-oxo-5,6-dihydro-1,5-naphthyridine-2-carbonitrile]", "values": [
      {"measurement": "IC50", "setting": "DGKα", "result": "≥ 1000", "unit": "nM"},
      {"measurement": "IC50", "setting": "DGKζ", "result": "100 to 1000", "unit": "nM"}
    ]},
    {"smiles": "Cn1c(=O)c(C#N)c(N(C)[C@H]2CC[C@H](N(CC3CC3)c3ccc(F)c(OC(F)F)c3)CC2)c2nc(Cl)ccc21", "note": "[Example 96]", "values": [
      {"measurement": "IC50", "setting": "DGKα", "result": "< 10", "unit": "nM"},
      {"measurement": "IC50", "setting": "DGKζ", "result": "≥ 1000", "unit": "nM"}
    ]},
    {"smiles": "Cn1c(=O)c(C#N)c(N(C)[C@H]2CC[C@H](N(CC3CC3)c3cccnc3)CC2)c2nc(C#N)ccc21", "note": "[Example 103, trans-8-((4-((cyclopropylmethyl)(pyridin-3-yl)amino)cyclohexyl)(methyl)amino)-5-methyl-6-oxo-5,6-dihydro-1,5-naphthyridine-2,7-dicarbonitrile]", "values": [
      {"measurement": "IC50", "setting": "DGKα", "result": "≥ 1000", "unit": "nM"},
      {"measurement": "IC50", "setting": "DGKζ", "result": "≥ 1000", "unit": "nM"}
    ]},
    {"smiles": "COc1cc(F)ccc1N(CC1CC1)[C@H]1CC[C@H](N(C)c2c(C#N)c(=O)n(C)c3ccc(Cl)nc23)CC1", "note": "[Example 108, trans-6-chloro-4-((-4-((cyclopropylmethyl)(4-fluoro-2-methoxyphenyl)amino)cyclohexyl)(methyl)amino)-1-methyl-2-oxo-1,2-dihydro-1,5-naphthyridine-3-carbonitrile]", "values": [
      {"measurement": "IC50", "setting": "DGKα", "result": "10 to 100", "unit": "nM"},
      {"measurement": "IC50", "setting": "DGKζ", "result": "100 to 1000", "unit": "nM"}
    ]},
    {"smiles": "Cn1c(=O)c(C#N)c(N(C)[C@H]2CC[C@@H](N(c3ccc(F)cc3)C3CC3)CC2)c2nc(C#N)ccc21", "note": "[Example 50, cis-8-((4-(cyclopropyl(4-fluorophenyl)amino)cyclohexyl)(methyl)amino)-5-methyl-6-oxo-5,6-dihydro-1,5-naphthyridine-2,7-dicarbonitrile]", "values": [
      {"measurement": "IC50", "setting": "DGKα", "result": "< 10", "unit": "nM"},
      {"measurement": "IC50", "setting": "DGKζ", "result": "100 to 1000", "unit": "nM"}
    ]}
  ]
}
